Laboratory results: patent US20090306132A1, “USE OF DERIVATIVES OF NAPHTHALENESULPHONIC OR QUINOLINESULPHONIC ACID IN THE TREATMENT OF VASOPROLIFERATIVE OCULAR DISEASES” (ITALFARMACO, S.A., priority 2006, published 2009)

Test system: hypoxia-induced hypervascularization of the retina
Assay: Inhibition of hypoxia-induced vascularization in a mouse model of retinopathy of prematurity (retinopathy score)
Format: in vivo, C57BL/6J mice
Experimental: A total of thirty C57BL/6J mice were used in a model of retinopathy of prematurity. Seven days after birth, the mice (young) were transferred together with their mothers to a high-oxygen atmosphere (75%) obtained using a mixture of oxygen and air. After 5 days, the animals were transferred to a normal atmosphere. The relative hypoxia produced leads to the release of growth factors which, in turn, cause hypervascularization of the retina. 14-18 hours thereafter, an intravitreous injection of 2 μl of a sterile saline solution of sodium 5-amino-2-naphthalene sulfonate (25 mg/ml) into an eye was performed, and another injection of an equivalent volume of saline solution was performed in the contralateral eye.
Five days after the return to normal atmosphere, the mice were put down by means of an intracardiac injection of dextrane marked with fluorescein (50 mg/ml), the nuclei were removed from both eyes and were fixed for 2 to 6 hours in formaldehyde (4%) at room temperature.
Subsequently, the retina was cut and mounted for observation by fluorescent microscopy, with the vasculature of the retina being assessed. Given that the retina occupies a circular area, in order to perform the assessment, 12 equal radial segments are considered. For the assessment of the central vascularization, the retina is divided into three concentric circles defining three zones: the interior zone around the optic disc, the middle and the exterior zone.
The retinopathy is quantified using a system of multiple assessment in which various morphological parameters associated with retinopathy are assessed: • Presence of a “crest” in each radial segment. One point for each radial segment with the presence of crests. Scoring from 0 to 12. • Presumed extraretinal vascularization, indicated by the presence of groupings of “crest-like” structures. One point for each radial segment with groupings. Scoring from 0 to 12. • Size of the central avascular zone. Scoring from 0 to 3, with 0 meaning an occupation of less than 50% of the interior zone; 1 an occupation of less than 25% of the sum of the interior and middle zone; 2 an occupation of between 25-50% of said sum and 3 an occupation of greater than 50% of same. • Tortuosity of the vessels, measured as a percentage of tortuous vessels with respect to the total. The scoring ranges from 0 to 3, with 0 meaning no tortuosity, 1 if less than ⅓ of the total are tortuous, 2 if between ⅓ and ⅔ are tortuous, and 3 if more than ⅔ are tortuous.
For each eye, a global assessment was obtained consisting of the sum of the points obtained for each parameter.
The statistical analysis of the data was performed subsequently using a Wilcoxon's test.

[1] = intravitreous injection of 2 μl of 25 mg/ml in saline, five days after return to normal atmosphere, N 30

Nc1cccc2cc(S(=O)(=O)[O-])ccc12.[Na+] [ACTIVE, sodium 5-amino-2-naphthalene sulfonate]
Effect seen in histological sections of treated eye versus contralateral placebo eye (in words) (histological sections, FIG. 2): antiangiogenic effect
Global retinopathy assessment (sum of the points obtained for each parameter), Median (intravitreous injection of 2 μl of 25 mg/ml in saline into one eye, saline in contralateral eye, assessed five days after return to normal atmosphere, N 30, p=0.017 vs placebo (Wilcoxon)): 10.5
Global retinopathy assessment (sum of the points obtained for each parameter), Maximum [1]: 16
Global retinopathy assessment (sum of the points obtained for each parameter), Minimum [1]: 3
Effect on neovascularization induced by hypoxia of the retina (in words) (score compared to placebo, FIG. 1): inhibitory effect
